Measured values reported in patent US20240400577A1, “MODULATORS OF PROTEIN KINASES” (VIBLIOME THERAPEUTICS, LLC, priority 2021, published 2024).

Tests used:
Assay in all cases: Kinase panel enzymatic inhibition assay (Nanosyn)
Type in all cases: biochemical
[1] = target: T1, CRAF (Homo sapiens, UniProt P04049); settings: compound 5 μM; ATP at Km; 30-minute pre-incubation
T1 construct: purchased Nanosyn (contract screening)
Description: (§1) The disclosed compounds were tested for activity against a panel of at least 300 kinases. Kinase panel screening was conducted by Nanosyn (Santa Clara, CA 95051) using an enzymatic inhibition assay accepted as valid by those skilled in the art (e.g., the Caliper LabChip® mobility shift assay, an ADP detection assay, or time-resolved fluorescence detection technology. Compounds were screened at a concentration of 5 μM using an ATP concentration at the Km for each of the respective kinases and a 30-minute pre-incubation time-point.
(§2) In Table 1 and 2, kinase inhibition is classified by: A=95% or greater, B=90%-94%, C=80%-89%, and D=79% and less with a compound concentration of 5 JIM. In Table 3 and 4, kinase inhibition is reported in terms of IC50 values corresponding to A=less than 500 nm, B=500 nm to less than 1 μM, C=1 μM to less than 10 μM, and D=10 μM or greater using a compound concentration of 5 μM.

[2] = target: T2, TNIK (Homo sapiens, UniProt Q9UKE5); settings: compound 5 μM; ATP at Km; 30-minute pre-incubation
T2 construct: Nanosyn (contract laboratory that ran the panel)
Description: as §1, §2

[3] = target: T3, KDR (Homo sapiens, UniProt P35968); settings: compound 5 μM; ATP at Km; 30-minute pre-incubation
T3 construct: purchased Nanosyn (contract screening)
Description: as §1, §2

[4] = test system: EPH; settings: compound 5 μM; ATP at Km; 30-minute pre-incubation
Description: as §1, §2

[5] = target: T4, Abl2 (Homo sapiens, UniProt P42684); settings: compound 5 μM; ATP at Km; 30-minute pre-incubation
T4 construct: purchased Nanosyn (contract screening)
Description: as §1, §2

[6] = target: T5, CSF1R (Homo sapiens, UniProt P07333); settings: compound 5 μM; ATP at Km; 30-minute pre-incubation
T5 construct: purchased Nanosyn (contract screening)
Description: as §1, §2

[7] = target: T6, PKCb1 (Homo sapiens, UniProt P05771); settings: compound 5 μM; ATP at Km; 30-minute pre-incubation
T6 construct: Nanosyn (contract laboratory that ran the panel)
Description: as §1, §2

[8] = target: T7, DDR1 (Homo sapiens, UniProt Q08345); settings: ATP at Km, 30-minute pre-incubation; for inhibition at 5 µM: compound 5 μM; for IC50: read-out: kinase inhibition in terms of IC50, DDR1
T7 construct: purchased Nanosyn (contract screening)
Description: as §1, §2

[9] = target: T8, SGK3 (Homo sapiens, UniProt Q96BR1); settings: compound 5 μM; ATP at Km; 30-minute pre-incubation
T8 construct: Nanosyn (contract laboratory that ran the panel)
T8 sequence (Q96BR1 1-496): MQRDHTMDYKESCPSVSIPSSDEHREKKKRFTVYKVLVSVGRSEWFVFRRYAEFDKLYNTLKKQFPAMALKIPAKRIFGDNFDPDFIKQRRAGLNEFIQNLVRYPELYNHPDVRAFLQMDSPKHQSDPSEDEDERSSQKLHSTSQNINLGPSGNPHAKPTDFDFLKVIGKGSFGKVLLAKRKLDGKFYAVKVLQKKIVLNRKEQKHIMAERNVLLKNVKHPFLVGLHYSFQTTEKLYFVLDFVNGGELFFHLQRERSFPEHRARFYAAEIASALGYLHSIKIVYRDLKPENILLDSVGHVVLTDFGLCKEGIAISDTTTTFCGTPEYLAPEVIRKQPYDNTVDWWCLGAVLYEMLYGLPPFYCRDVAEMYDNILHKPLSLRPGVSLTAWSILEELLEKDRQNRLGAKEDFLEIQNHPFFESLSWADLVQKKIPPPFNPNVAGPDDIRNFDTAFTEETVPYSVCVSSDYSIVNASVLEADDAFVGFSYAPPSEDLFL
Description: as §1, §2

[10] = target: T9, TAOK2 (Homo sapiens, UniProt Q9UL54); settings: compound 5 μM; ATP at Km; 30-minute pre-incubation
T9 construct: Nanosyn (contract laboratory that ran the panel)
T9 sequence (Q9UL54 1-1235): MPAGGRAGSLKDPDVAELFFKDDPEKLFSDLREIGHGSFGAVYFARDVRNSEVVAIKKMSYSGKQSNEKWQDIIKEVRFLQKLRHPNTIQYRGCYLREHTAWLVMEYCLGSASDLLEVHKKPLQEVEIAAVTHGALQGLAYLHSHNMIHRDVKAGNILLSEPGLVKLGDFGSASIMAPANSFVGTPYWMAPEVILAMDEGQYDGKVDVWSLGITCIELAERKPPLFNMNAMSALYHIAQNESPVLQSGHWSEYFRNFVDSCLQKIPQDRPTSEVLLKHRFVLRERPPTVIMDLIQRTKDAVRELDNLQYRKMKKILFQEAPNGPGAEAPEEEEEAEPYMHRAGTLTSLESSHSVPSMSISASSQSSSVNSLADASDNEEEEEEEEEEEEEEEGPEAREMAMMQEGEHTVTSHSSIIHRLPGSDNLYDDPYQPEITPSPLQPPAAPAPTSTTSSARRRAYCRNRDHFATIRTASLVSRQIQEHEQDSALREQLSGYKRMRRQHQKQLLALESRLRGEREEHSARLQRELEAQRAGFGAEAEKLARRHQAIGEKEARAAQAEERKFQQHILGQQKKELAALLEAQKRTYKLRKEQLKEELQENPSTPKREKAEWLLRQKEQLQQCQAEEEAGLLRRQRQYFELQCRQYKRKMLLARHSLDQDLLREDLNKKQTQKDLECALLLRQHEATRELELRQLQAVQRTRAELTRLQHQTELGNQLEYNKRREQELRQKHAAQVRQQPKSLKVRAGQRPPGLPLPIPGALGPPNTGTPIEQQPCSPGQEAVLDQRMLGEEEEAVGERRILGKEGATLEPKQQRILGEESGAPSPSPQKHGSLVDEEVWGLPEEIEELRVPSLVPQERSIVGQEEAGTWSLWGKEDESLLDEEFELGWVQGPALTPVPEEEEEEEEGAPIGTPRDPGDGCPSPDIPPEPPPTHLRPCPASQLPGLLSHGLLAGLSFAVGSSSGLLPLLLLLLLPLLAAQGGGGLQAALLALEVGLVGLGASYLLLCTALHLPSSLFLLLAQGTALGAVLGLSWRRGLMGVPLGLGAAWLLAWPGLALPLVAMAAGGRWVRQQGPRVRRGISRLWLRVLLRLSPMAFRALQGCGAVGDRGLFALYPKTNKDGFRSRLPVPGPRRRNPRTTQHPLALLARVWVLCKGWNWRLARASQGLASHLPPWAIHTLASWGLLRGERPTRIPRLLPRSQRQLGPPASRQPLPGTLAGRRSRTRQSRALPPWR
Description: as §1, §2

[11] = target: T10, ERBB4 (Homo sapiens, UniProt Q15303); settings: compound 5 μM; ATP at Km; 30-minute pre-incubation
T10 construct: purchased Nanosyn (contract screening)
Description: as §1, §2

T1 sequence (P04049 whole entry): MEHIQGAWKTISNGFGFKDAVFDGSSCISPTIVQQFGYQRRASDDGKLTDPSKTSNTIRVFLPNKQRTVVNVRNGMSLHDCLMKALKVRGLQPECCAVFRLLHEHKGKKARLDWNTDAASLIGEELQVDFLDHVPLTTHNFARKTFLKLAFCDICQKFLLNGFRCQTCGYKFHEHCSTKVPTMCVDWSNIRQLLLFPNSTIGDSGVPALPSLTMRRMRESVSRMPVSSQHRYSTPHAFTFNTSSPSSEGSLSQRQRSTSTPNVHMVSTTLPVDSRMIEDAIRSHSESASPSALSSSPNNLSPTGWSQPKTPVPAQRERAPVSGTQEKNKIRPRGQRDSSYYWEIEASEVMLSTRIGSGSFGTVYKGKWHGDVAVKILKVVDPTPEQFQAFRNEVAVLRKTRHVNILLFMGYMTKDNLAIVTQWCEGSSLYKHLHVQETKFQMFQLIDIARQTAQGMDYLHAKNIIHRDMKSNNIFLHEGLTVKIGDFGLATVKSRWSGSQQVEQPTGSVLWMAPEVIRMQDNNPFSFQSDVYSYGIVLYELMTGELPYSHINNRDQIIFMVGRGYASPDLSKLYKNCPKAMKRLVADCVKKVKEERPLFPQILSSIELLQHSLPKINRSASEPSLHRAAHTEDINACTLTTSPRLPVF
T5 sequence (P07333 20-972): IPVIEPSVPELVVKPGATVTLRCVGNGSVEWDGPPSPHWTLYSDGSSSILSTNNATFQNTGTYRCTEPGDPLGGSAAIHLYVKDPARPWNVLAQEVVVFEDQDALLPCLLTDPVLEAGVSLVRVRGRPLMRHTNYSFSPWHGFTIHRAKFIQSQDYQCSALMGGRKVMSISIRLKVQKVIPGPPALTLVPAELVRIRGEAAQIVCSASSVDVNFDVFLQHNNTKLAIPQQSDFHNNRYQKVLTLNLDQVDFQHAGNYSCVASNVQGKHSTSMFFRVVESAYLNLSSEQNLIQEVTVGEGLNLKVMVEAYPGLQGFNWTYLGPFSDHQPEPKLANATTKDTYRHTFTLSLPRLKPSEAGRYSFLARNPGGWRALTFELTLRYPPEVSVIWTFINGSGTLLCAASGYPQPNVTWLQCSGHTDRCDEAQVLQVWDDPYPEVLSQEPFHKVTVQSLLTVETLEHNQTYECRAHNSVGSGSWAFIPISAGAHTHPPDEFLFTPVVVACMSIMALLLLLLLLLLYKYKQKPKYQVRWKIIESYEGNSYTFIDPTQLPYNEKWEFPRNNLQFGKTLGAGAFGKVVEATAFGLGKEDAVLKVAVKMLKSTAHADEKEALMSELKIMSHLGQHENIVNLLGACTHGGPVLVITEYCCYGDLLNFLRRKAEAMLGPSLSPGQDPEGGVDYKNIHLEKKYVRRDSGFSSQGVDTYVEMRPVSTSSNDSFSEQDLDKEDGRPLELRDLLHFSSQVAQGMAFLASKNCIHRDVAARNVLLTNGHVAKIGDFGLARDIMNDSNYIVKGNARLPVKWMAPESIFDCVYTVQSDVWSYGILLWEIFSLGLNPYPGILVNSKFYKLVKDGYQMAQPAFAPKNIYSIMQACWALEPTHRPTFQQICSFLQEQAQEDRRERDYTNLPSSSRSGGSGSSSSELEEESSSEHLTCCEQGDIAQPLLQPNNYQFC
T4 sequence (P42684 whole entry): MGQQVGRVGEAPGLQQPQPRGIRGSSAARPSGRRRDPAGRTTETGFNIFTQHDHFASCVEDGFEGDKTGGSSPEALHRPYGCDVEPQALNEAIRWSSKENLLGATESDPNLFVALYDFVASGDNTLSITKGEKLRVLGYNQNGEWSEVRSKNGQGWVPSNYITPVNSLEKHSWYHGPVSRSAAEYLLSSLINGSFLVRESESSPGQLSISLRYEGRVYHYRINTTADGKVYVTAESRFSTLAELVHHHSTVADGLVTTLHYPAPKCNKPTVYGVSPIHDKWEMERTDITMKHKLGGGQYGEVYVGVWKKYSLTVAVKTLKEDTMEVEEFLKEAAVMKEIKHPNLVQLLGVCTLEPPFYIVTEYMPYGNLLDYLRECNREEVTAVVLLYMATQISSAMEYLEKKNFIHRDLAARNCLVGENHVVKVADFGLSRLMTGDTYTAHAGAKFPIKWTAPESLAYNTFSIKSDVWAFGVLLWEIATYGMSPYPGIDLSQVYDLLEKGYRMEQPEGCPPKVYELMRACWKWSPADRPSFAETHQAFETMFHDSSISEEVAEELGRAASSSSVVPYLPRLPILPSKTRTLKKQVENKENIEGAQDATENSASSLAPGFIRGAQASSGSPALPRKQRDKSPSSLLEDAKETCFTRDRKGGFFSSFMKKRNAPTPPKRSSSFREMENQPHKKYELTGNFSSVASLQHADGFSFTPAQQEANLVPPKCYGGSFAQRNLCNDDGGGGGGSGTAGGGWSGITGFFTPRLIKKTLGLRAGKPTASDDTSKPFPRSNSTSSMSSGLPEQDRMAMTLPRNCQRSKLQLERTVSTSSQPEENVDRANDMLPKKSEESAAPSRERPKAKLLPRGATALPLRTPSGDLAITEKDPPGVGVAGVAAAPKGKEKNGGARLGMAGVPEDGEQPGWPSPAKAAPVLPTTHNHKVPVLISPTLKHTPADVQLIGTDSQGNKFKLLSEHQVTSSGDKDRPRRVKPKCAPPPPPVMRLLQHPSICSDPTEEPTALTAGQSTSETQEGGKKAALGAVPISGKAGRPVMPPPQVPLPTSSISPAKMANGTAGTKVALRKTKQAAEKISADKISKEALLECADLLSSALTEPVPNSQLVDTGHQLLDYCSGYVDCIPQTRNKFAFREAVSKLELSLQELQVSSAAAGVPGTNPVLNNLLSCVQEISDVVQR
T10 sequence (Q15303 26-1308): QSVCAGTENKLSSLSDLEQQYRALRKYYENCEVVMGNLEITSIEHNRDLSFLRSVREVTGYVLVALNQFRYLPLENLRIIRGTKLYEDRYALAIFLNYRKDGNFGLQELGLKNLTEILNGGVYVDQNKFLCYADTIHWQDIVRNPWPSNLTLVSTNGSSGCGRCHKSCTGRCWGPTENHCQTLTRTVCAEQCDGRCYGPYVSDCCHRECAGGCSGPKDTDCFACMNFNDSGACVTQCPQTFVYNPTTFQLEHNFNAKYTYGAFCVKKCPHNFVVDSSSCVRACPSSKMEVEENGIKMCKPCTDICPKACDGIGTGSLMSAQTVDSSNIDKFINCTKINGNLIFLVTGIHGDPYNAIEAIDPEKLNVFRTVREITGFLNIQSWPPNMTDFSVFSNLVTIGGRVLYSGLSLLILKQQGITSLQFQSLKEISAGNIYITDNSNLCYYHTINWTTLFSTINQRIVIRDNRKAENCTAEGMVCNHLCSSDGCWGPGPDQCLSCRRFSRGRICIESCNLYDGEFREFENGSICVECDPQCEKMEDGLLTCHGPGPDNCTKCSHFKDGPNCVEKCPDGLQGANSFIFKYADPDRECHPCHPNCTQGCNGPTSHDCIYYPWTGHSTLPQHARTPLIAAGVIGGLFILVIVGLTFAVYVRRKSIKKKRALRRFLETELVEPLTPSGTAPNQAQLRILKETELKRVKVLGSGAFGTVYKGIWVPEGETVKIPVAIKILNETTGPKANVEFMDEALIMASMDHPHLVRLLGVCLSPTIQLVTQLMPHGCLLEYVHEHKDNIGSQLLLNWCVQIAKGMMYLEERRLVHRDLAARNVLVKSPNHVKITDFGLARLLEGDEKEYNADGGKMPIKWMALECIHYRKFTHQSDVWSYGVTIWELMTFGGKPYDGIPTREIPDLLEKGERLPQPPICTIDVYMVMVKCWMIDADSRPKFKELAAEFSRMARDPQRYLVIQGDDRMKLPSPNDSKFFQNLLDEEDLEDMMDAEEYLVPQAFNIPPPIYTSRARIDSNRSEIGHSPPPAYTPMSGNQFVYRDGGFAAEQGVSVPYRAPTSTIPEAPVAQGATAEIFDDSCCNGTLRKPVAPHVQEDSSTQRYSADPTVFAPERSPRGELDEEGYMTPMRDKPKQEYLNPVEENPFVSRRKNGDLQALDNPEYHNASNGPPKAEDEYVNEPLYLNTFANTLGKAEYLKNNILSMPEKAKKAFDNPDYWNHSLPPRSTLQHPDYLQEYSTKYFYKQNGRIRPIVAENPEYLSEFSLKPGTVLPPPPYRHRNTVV
T7 sequence (Q08345 19-913): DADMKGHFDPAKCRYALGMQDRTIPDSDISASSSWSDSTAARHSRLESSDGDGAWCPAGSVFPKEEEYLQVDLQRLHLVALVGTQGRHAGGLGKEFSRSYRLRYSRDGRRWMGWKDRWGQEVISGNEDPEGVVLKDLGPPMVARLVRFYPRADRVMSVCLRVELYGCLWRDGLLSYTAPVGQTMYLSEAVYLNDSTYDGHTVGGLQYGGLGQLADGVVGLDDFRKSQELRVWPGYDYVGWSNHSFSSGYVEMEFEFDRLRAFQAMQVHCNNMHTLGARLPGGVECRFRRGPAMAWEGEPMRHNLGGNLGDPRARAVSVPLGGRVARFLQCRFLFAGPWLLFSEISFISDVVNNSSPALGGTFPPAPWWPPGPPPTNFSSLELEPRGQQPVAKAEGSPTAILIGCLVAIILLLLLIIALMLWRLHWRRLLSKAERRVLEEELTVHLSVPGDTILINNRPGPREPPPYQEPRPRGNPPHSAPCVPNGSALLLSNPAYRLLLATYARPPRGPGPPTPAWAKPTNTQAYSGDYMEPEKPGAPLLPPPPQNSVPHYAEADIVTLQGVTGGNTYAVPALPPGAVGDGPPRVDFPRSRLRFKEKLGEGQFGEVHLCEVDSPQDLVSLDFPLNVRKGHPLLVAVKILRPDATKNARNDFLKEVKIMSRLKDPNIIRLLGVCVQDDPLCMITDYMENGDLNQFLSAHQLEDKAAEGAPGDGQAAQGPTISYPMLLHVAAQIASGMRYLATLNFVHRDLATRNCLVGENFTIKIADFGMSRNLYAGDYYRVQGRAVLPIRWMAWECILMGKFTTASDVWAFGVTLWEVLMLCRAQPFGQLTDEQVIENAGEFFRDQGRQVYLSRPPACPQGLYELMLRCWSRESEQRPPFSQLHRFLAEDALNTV

Compound	inhibition at 5 µM [1] [%]	inhibition at 5 µM [2] [%]	inhibition at 5 µM [3] [%]	kinase inhibition, EPH [4]	inhibition at 5 µM [5] [%]	inhibition at 5 µM [6] [%]	inhibition at 5 µM [7] [%]	inhibition at 5 µM [8] [%]	inhibition at 5 µM [9] [%]	inhibition at 5 µM [10] [%]	inhibition at 5 µM [11] [%]	IC50 [8] [nM]
Cc1ccc(NC(=O)c2cc(S(C)(=O)=O)n(-c3ccc(F)cc3)n2)cc1Nc1ccc2ncn(C)c(=O)c2c1 [Ex4, 1-(4-fluorophenyl)-N-(4-methyl-3-((3-methyl-4-oxo-3,4-dihydroquinazolin-6-yl)amino)phenyl)-5-(methylsulfonyl)-1H-pyrazole-3-carboxamide]	≥ 95	< 79	< 79	D (D=79% and less)	< 79	< 79	< 79	< 79	< 79	< 79	< 79	
Cc1ccc(NC(=O)c2cc([S+](C)[O-])n(-c3ccc(F)cc3)n2)cc1Nc1ccc2ncn(C)c(=O)c2c1 (stereo not drawn) [Ex5, 1-(4-fluorophenyl)-N-(4-methyl-3-((3-methyl-4-oxo-3,4-dihydroquinazolin-6-yl)amino)phenyl)-5-(methylsulfinyl)-1H-pyrazole-3-carboxamide]	≥ 95	< 79	< 79	D (D=79% and less)	< 79	< 79	< 79	90 to 94	< 79	< 79	< 79	
Cc1ccc(NC(=O)c2cc([S+](C)[O-])n(-c3ccc(F)cc3)n2)cc1C#Cc1cnc2cccnn12 (stereo not drawn) [Ex6, 1-(4-fluorophenyl)-N-(3-(imidazo[1,2-b]pyridazin-3-ylethynyl)-4-methylphenyl)-5-(methylsulfinyl)-1H-pyrazole-3-carboxamide]	≥ 95	< 79	< 79	D (D=79% and less)	≥ 95	90 to 94	< 79	≥ 95	< 79	< 79	< 79	
CNC(=O)c1cc(Oc2ccc(F)c(NC(=O)c3cc([S+](C)[O-])n(-c4ccc(F)cc4)n3)c2)ccn1 (stereo not drawn) [Ex7, 4-(4-fluoro-3-(1-(4-fluorophenyl)-5-(methylsulfinyl)-1H-pyrazole-3-carboxamido)phenoxy)-N-methylpicolinamide]	≥ 95	< 79	< 79	D (D=79% and less)	< 79	< 79	< 79	< 79	< 79	< 79	< 79	
CSc1cc(C(=O)Nc2cc(Oc3ccnc(C(=O)NC4CNC4)c3)ccc2F)nn1-c1ccc(F)cc1 [Ex8, N-(azetidin-3-yl)-4-(4-fluoro-3-(1-(4-fluorophenyl)-5-(methylthio)-1H-pyrazole-3-carboxamido)phenoxy)picolinamide]	≥ 95	90 to 94	< 79	D (D=79% and less)	< 79	< 79	80 to 89	< 79	80 to 89	< 79	< 79	
Cc1ccc(NC(=O)c2cc(S(C)(=O)=O)n(-c3ccc(F)cc3)n2)cc1-c1cc(OCCO)nc(N2CCOCC2)c1 [Ex9, 1-(4-fluorophenyl)-N-(3-(2-(2-hydroxyethoxy)-6-morpholinopyridin-4-yl)-4-methylphenyl)-5-(methylsulfonyl)-1H-pyrazole-3-carboxamide]	≥ 95	< 79	< 79	D (D=79% and less)	< 79	< 79	< 79	≥ 95	< 79	≥ 95	< 79	

Next, values leading:

inhibition at 5 µM [1] [%]	inhibition at 5 µM [2] [%]	inhibition at 5 µM [3] [%]	kinase inhibition, EPH [4]	inhibition at 5 µM [5] [%]	inhibition at 5 µM [6] [%]	inhibition at 5 µM [7] [%]	inhibition at 5 µM [8] [%]	inhibition at 5 µM [9] [%]	inhibition at 5 µM [10] [%]	inhibition at 5 µM [11] [%]	IC50 [8] [nM]	Compound
≥ 95	< 79	< 79	D (D=79% and less)	< 79	< 79	< 79	≥ 95	< 79	90 to 94	< 79		Cc1ccc(NC(=O)c2cc([S+](C)[O-])n(-c3ccc(F)cc3)n2)cc1-c1cc(OCCO)nc(N2CCOCC2)c1 (stereo not drawn) [Ex10, 1-(4-fluorophenyl)-N-(3-(2-(2-hydroxyethoxy)-6-morpholinopyridin-4-yl)-4-methylphenyl)-5-(methylsulfinyl)-1H-pyrazole-3-carboxamide]
≥ 95	< 79	< 79	D (D=79% and less)	< 79	< 79	< 79	< 79	< 79	< 79	< 79		Cc1ccc(NC(=O)c2cc([S+](C)[O-])n(-c3ccc(F)cc3)n2)cc1-c1cc(N2CCOCC2)c(=O)n(C)c1 (stereo not drawn) [Ex11, 1-(4-fluorophenyl)-N-(4-methyl-3-(1-methyl-5-morpholino-6-oxo-1,6-dihydropyridin-3-yl)phenyl)-5-(methylsulfinyl)-1H-pyrazole-3-carboxamide]
											< 500	COc1cc2nccc(Oc3ccc(NC(=O)c4cc(S(C)(=O)=O)n(-c5ccc(F)cc5)n4)c(F)c3)c2cc1OC [Ex71, N-(4-((6,7-dimethoxyquinolin-4-yl)oxy)-2-fluorophenyl)-1-(4-fluorophenyl)-5-(methylsulfonyl)-1H-pyrazole-3-carboxamide]
											< 500	COc1cc2nccc(Oc3ccc(NC(=O)c4cc(S(C)(=O)=O)n(-c5ccc(F)cc5)n4)cc3F)c2cc1OC [Ex73, N-(4-((6,7-dimethoxyquinolin-4-yl)oxy)-3-fluorophenyl)-1-(4-fluorophenyl)-5-(methylsulfonyl)-1H-pyrazole-3-carboxamide]
